Measurements: EP0558245A1, “Heterobicyclic compounds as antagogists of alpha-1 adrenergic and SHT1A receptors” (priority 1992, dated 1993)
Like-named read-outs stand apart in the source and are kept apart here.

Tests used:
α₁ receptors = experiment: [3H]prazosin binding (α1 receptors), rat cerebral cortex membranes; conditions: rat cerebral cortex crude membranes, [3H]prazosin 0.35 nM, 25°C 30 min; read-out: Receptor Binding IC50 (nM) α1
Procedure: Rat cerebral cortices were homogenized in 50 volumes of original wet weight of ice-cold 50 mM Tris-HCl buffer pH 7.4. The homogenates were centrifuged at 48,000 x g for 10 minutes, and the pellets were resuspended in the same volume of ice-cold buffer, centrifuged and resuspended two more times. The final pellets obtained were resuspended in the same volume of buffer and incubated according to the conditions reported in the table below.
The incubations were terminated after the appropriate time (see table) by rapid filtration through Whatman GF/B filters using a Brandel cell harvester. The filters were washed twice with 15 ml of ice-cold buffer (see table). The radioactivity retained on the filters was determined by liquid scintillation counting. Nonspecific binding (which amounted generally to 10-30%) was evaluated by adding high concentrations of the specific displacers (see table). All the compounds were initially tested at 1x10⁻⁶ M concentration, and in the presence of significant displacing activity, a complete competition curve was generated (down to a concentration of 10⁻¹¹ M). All the samples were run in triplicate.

5HT1A receptors = target: T1, 5HT1A receptors (Rattus norvegicus, UniProt P19327); experiment: [3H]8-OH-DPAT binding (5HT1A receptors), rat hippocampus membranes; conditions: rat hippocampus crude membranes, [3H]8-OH-DPAT 1.0 nM, 25°C 30 min; read-out: Receptor Binding IC50 (nM) 5-HT1a
T1 construct: Rat hippocampi were homogenized; from tissue; host or cells: rat hippocampus membranes
T1 sequence (P19327 1-422): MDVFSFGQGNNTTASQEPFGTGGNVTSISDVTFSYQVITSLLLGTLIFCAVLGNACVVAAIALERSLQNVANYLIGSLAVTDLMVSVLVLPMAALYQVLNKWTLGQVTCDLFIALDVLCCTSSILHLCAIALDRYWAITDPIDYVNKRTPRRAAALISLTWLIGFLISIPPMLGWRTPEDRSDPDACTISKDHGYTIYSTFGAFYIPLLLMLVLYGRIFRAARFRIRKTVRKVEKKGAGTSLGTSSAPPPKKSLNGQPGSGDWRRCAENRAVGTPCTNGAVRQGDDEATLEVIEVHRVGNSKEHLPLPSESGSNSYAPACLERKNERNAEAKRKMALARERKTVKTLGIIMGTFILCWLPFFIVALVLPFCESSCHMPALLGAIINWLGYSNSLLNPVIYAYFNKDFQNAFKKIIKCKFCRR

[1] = Acute toxicity in mice after intraperitoneal and oral administration; conditions: mouse, in vivo, female albino Swiss mice, mortality recorded 7 days after administration
Procedure: Male Sprague Dawley rats [Crl: CD' BR] of 200-300 g b.w., female Albino Swiss mice [Crl: CD-1 (ICR) BR] 20-30 g b.w., and male Beagle dogs (10-12 kg b.w.) were obtained from Charles River, Italy and Nossan (Correzzana, Milan, Italy), respectively. Animals were housed with free access to food and water and maintained on forced light-dark cycle at 22-24°C until the day of experiments.
The acute toxicity of synthesized compounds was evaluated in female albino Swiss mice after intraperitoneal and oral administration. Four logarithmic scaled doses of the compounds were dissolved or suspended in 0.5% Methocel and administered in a volume of 10 ml/kg to groups of 4 mice/dose. Mortality was recorded 7 days after the administration. Data analysis: the LD₅₀ values and their fiducial limits were calculated according to the method of Weil (Biometrics, 8, 249, 1952).

Compound | IC50 (α₁ receptors) [nM] | IC50 (5HT1A receptors) [nM] | LD50 at 168 h ([1]; ip, intraperitoneal, read-out: Acute Toxicity in Mice LD50 (mg/kg) i.p.) [mg/kg] | LD50 at 168 h ([1]; oral, read-out: Acute Toxicity in Mice LD50 (mg/kg) p.o.) [mg/kg]
COc1ccccc1N1CCN(CCCCS(=O)(=O)c2cccc3c(=O)c(C)c(-c4ccccc4)oc23)CC1 [Example 84, 8-{4-[4-(2-methoxyphenyl)-1-piperazinyl]-butylsulphonyl}-3-methyl-4-oxo-2-phenyl-4H-1-benzopyran methanesulphonate . ¼ H₂O] | 5 | 2 |  | 
COc1ccccc1N1CCN(CCNC(=O)Cc2cccc3c(=O)cc(-c4ccccc4)oc23)CC1 [Example 80, 8-{2-[4-(2-methoxyphenyl)-1-piperazinyl]-ethylcarbamoylmethyl}-4-oxo-2-phenyl-4H-1-benzopyran methanesulphonate hydrate] | 28 | 162 |  | 
COc1ccccc1N1CCN(CCCNC(=O)c2cccc3c(=O)ccoc23)CC1 [Example 88, 8-{3-[4-(2-methoxyphenyl)-1-piperazinyl]-propylcarbamoyl}-4-oxo-4H-1-benzopyran methanesulphonate . 1.25 H₂O] | 216 | 11 |  | 
COc1ccccc1N1CCN(CCCC(=O)c2cccc3c(=O)c(C)c(-c4ccccc4)oc23)CC1.CS(=O)(=O)O |  |  | > 500 | > 2000
COc1ccccc1N1CCN(CCCNC(=O)c2cccc3c(=O)cc(-c4ccccc4)sc23)CC1 [Example 107, 8-{3-[4-(2-methoxyphenyl)-1-piperazinyl]-propylcarbamoyl}-4-oxo-2-phenyl-4H-1-benzothiopyran] | 37 | 16 |  | 
COc1ccccc1N1CCN(CCCNC(=O)c2cccc3c(=O)c(-c4ccccc4)coc23)CC1 [Example 64, 8-{3-[4-(2-methoxyphenyl)-1-piperazinyl]-propylcarbamoyl}-3-phenyl-4-oxo-4H-1-benzopyran dimethanesulphonate] | 40 | 11 |  | 
Cc1c(-c2ccccc2)oc2c(C(=O)NCCCNCC3CCc4ccccc4C3=O)cccc2c1=O (stereo not drawn) [Example 65, 8-{3-[(3,4-dihydro-1-oxo-2H-naphthyl)-methylamino]-propylcarbamoyl}-3-methyl-4-oxo-2-phenyl-4H-1-benzopyran methanesulphonate] |  | 26 |  | 
COc1ccccc1N1CCN(CCCNC(=O)c2cccc3c(=O)c(C)c(C4CCCCC4)oc23)CC1 [Example 104, 8-{3-[4-(2-methoxyphenyl)-1-piperazinyl]-propylcarbamoyl}-2-cyclohexyl-3-methyl-4-oxo-4H-1-benzopyran] | 9 | 15 |  | 
COc1ccccc1N1CCN(CCCC(=O)c2cccc3c(=O)c(C)c(-c4ccccc4)oc23)CC1.CS(=O)(=O)O [methanesulphonate] | 22 | 84 |  | 
COc1ccccc1N1CC[N+]([O-])(CCCOc2cccc3c(=O)c(C)c(-c4ccccc4)oc23)CC1 [Example 43, 8-{3-[4-(2-methoxyphenyl)-1-oxo-1-piperazinyl]-propoxy}-3-methyl-4-oxo-2-phenyl-4H-1-benzopyran 1.75-hydrate] | 166 | > 1000 |  | 
COc1ccccc1N1CCN(CCCN(OC2CCCCO2)C(=O)c2cccc3c(=O)c(C)c(-c4ccccc4)oc23)CC1 (stereo not drawn) [Example 68, 8-{N-(2-tetrahydropyranyloxy)-3-[4-(2-methoxyphenyl)-1-piperazinyl]-propylcarbamoyl}-3-methyl-4-oxo-2-phenyl-4H-1-benzopyran methanesulphonate hemihydrate] | 29 | 13 |  | 
COc1ccccc1N1CCN(CC/C=C/c2cccc3c(=O)c(C)c(-c4ccccc4)oc23)CC1 [Example 78, (E)-8-{4-[4-(2-methoxyphenyl)-1-piperazinyl]-1-butenyl}-3-methyl-4-oxo-2-phenyl-4H-1-benzopyran] | 18 | 116 |  | 
COc1ccccc1OCCCNCCCNC(=O)c1cccc2c(=O)c(C)c(-c3ccccc3)oc12 [Example 74, 8-{3-[3-(2-methoxyphenoxy)-propylamino]-propylcarbamoyl}-3-methyl-4-oxo-2-phenyl-4H-1-benzopyran methanesulphonate hemihydrate] | 178 | 482 |  | 
COc1ccccc1N1CCN(CCCN(C(C)=O)C(=O)c2cccc3c(=O)c(C)c(-c4ccccc4)oc23)CC1 [Example 81, 8-{N-acetyl-3-[4-(2-methoxyphenyl)-1-piperazinyl]-propylcarbamoyl}-3-methyl-4-oxo-2-phenyl-4H-1-benzopyran] | 13 | 81 |  | 
CSc1ccccc1OCCNCCCNC(=O)c1cccc2c(=O)c(C)c(-c3ccccc3)oc12 [Example 75, 8-{3-[2-(2-methylthiophenoxy)-ethylamino]-propylcarbamoyl}-3-methyl-4-oxo-2-phenyl-4H-1-benzopyran methanesulphonate] | 147 | 15 |  | 
COc1ccccc1N1CCN(CCCNC(=O)c2cccc3c(=O)cc(-c4ccccc4)oc23)CC1 [Example 86, 8-{3-[4-(2-methoxyphenyl)-1-piperazinyl]-propylcarbamoyl}-4-oxo-2-phenyl-4H-1-benzopyran methanesulphonate . ¼ H₂O] | 48 | 20 |  | 
COc1ccccc1N1CCN(CCCSc2cccc3c(=O)c(C)c(-c4ccccc4)oc23)CC1 [Example 46, 8-{3-[4-(2-methoxyphenyl)-1-piperazinyl]-propylthio}-3-methyl-4-oxo-2-phenyl-4H-1-benzopyran] | 86 | 23 |  | 

Now from value to compound, other results behind:

IC50 (α₁ receptors) [nM] | IC50 (5HT1A receptors) [nM] | Compound | LD50 at 168 h ([1]; ip, intraperitoneal, read-out: Acute Toxicity in Mice LD50 (mg/kg) i.p.) [mg/kg] | LD50 at 168 h ([1]; oral, read-out: Acute Toxicity in Mice LD50 (mg/kg) p.o.) [mg/kg]
16 | 14 | COc1ccccc1N1CCN(CCCNC(=O)c2cccc3c(=O)c(CO)c(-c4ccccc4)oc23)CC1 [Example 85, 8-{3-[4-(2-methoxyphenyl)-1-piperazinyl]-propylcarbamoyl}-3-hydroxymethyl-4-oxo-2-phenyl-4H-1-benzopyran. 0.4 ethanol] |  | 
56 | 18 | COc1ccccc1N1CCN(CCCNC(=O)c2cccc3c(=O)c(C)c(C)oc23)CC1 [Example 102, 8-{3-[4-(2-methoxyphenyl)-1-piperazinyl]-propylcarbamoyl}-2,3-dimethyl-4-oxo-4H-1-benzopyran] |  | 
103 | 12 | COc1ccccc1N1CCN(CCCNC(=O)c2c(OC)ccc3c(=O)c(C)c(-c4ccccc4)oc23)CC1 [Example 98, 8-{3-[4-(2-methoxyphenyl)-1-piperazinyl]-propylcarbamoyl}-7-methoxy-3-methyl-4-oxo-2-phenyl-4H-1-benzopyran] |  | 
30 | 5 | COc1ccccc1N1CCN(CCCNC(=S)c2cccc3c(=O)c(C)c(-c4ccccc4)oc23)CC1 [Example 83, 8-{3-[4-(2-methoxyphenyl)-1-piperazinyl]-propylthiocarbamoyl}-3-methyl-4-oxo-2-phenyl-4H-1-benzopyran methanesulphonate] |  | 
44 | 5 | COc1ccccc1N1CCN(CCCNC(=O)c2cccc3c(=O)c(C)c(-c4ccc(C(F)(F)F)cc4)oc23)CC1 [Example 99, 8-{3-[4-(2-methoxyphenyl)-1-piperazinyl]-propylcarbamoyl}-3-methyl-4-oxo-2-(4-trifluoromethylphenyl)-4H-1-benzopyran methanesulphonate sesquihydrate] |  | 
39 | 66 | COc1ccccc1N1CCN(CCCNC(=O)c2cc(N)cc3c(=O)c(C)c(-c4ccccc4)oc23)CC1 [Example 94, 8-{3-[4-(2-methoxyphenyl)-1-piperazinyl]-propylcarbamoyl}-6-amino-3-methyl-4-oxo-2-phenyl-4H-1-benzopyran] |  | 
26 | 15 | COc1ccc(-c2oc3c(C(=O)NCCCN4CCN(c5ccccc5OC)CC4)cccc3c(=O)c2C)cc1 [Example 110, 8-{3-[4-(2-methoxyphenyl)-1-piperazinyl]-propylcarbamoyl}-2-(4-methoxyphenyl)-3-methyl-4-oxo-4H-1-benzopyran] |  | 
47 | 38 | COc1ccccc1N1CCN(CCCNC(=O)c2cc([N+](=O)[O-])cc3c(=O)c(C)c(-c4ccccc4)oc23)CC1 [Example 93, 8-{3-[4-(2-methoxyphenyl)-1-piperazinyl]-propylcarbamoyl}-3-methyl-6-nitro-4-oxo-2-phenyl-4H-1-benzopyran] |  | 
108 | 69 | COc1ccccc1N1CCN(CCCN(O)C(=O)c2cccc3c(=O)c(C)c(-c4ccccc4)oc23)CC1 [Example 71, 8-{N-hydroxy-3-[4-(2-methoxyphenyl)-1-piperazinyl]-propylcarbamoyl}-3-methyl-4-oxo-2-phenyl-4H-1-benzopyran methanesulphonate 0.25 H20] |  | 
